One assay has as its target SOS1/KRAS WT (Homo sapiens (Human), UniProt Q07889). Put plainly: SOS1/KRAS WT HTRF binding assay (FRET-based protein-protein interaction). The settings on record: inhibition of His6-SOS1 (aa564-1049, 40 nM) binding to GST-KRAS-WT (aa1-188, 40 nM); at least two independent replicates. The procedure, abridged: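 Time-resolved FRET at 665 nm, read 4 hr after adding anti-GST-Eu(K) (4 nM) and anti-6His-XL665 (20 nM), tracked SOS1(aa564-1049)–KRAS WT(aa1-188) association. Both proteins were at 40 nM, pre-incubated 60 min at room temperature with compound. Max/min signals came from 0.05% DMSO and 10 μM reference, with four-parameter logistic IC50.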
Chain of SOS1/KRAS WT (Q07889 564-1049): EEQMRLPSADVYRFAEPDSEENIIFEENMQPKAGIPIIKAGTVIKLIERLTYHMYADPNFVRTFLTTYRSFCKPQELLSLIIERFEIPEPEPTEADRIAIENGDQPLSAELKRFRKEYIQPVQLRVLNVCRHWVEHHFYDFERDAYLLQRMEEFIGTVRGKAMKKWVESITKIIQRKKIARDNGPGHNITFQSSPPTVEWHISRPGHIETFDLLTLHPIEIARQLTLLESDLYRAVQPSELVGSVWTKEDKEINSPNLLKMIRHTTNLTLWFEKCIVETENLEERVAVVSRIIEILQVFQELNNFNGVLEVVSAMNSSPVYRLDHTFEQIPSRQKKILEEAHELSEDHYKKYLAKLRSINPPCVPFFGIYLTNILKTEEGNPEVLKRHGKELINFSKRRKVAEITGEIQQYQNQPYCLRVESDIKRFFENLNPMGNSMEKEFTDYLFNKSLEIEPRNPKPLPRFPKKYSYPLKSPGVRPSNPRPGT
As to `COCC1(C)C(=O)N(C)c2cc3c(N[C@H](C)c4cccc(C(F)(F)C(C)(C)O)c4)nnc(C)c3cc21` (stereo partly drawn) [Compound 91, D8-[[(1R)-1-[3-(1,1-difluoro-2-hydroxy-2-methyl-propyl)phenyl]ethyl]amino]-3-(methoxymethyl)-1,3,5-trimethyl-pyrrolo[3,2-g]phthalazin-2-one], the “SOS1/KRAS WT HTRF Binding assay pIC50” value came to 7.75.

Staying with this assay, now noted: inhibition of His6-SOS1 (aa564-1049, 40 nM) binding to GST-KRAS-WT (aa1-188, 40 nM); at least two independent replicates; read-out: SOS1/KRAS WT HTRF Binding assay pIC50 (converted).
Regarding `Cc1c([C@@H](C)Nc2nnc(C)c3cc4c(cc23)N(C)C(=O)C4(C)C)cccc1C(F)(F)CO` [Compound 69, 1,3,3,5-tetramethyl-8-[[(1R)-1-[3-(1,1-difluoro-2-hydroxy-ethyl)-2-methyl-phenyl]ethyl]amino]pyrrolo[2,3-g]phthalazin-2-one], the IC50 is 9.12 nM.

Take `Cc1nnc(N[C@H](C)c2cccc(C(F)(F)CO)c2)c2cc3c(cc12)n(C)c(=O)n3C1CC1` [Compound 70, 3-cyclopropyl-1,8-dimethyl-5-[[(1R)-1-[3-(1,1-difluoro-2-hydroxy-ethyl)phenyl]ethyl]amino]imidazo [4,5-g]phthalazin-2-one]: the IC50 was 11.5 nM.

In the case of `Cc1c([C@@H](C)Nc2nnc(C)c3cc4c(cc23)N(C)C(=O)C42CCOCC2)cccc1C(F)(F)CO` [Compound 72, 1,5-dimethyl-8-[[(1R)-1-[3-(1,1-difluoro-2-hydroxy-ethyl)-2-methyl-phenyl]ethyl]amino]spiro[pyrrolo [2,3-g]phthalazine-3,4′-tetrahydropyran]-2-one], the IC50 is 9.77 nM.

`Cc1nnc(N[C@H](C)c2cccc(C(F)(F)C(C)(C)O)c2F)c2cc3c(cc12)C1(CCOCC1)C(=O)N3C` [Compound 73, 1,5-dimethyl-8-[[(1R)-1-[3-(1,1-difluoro-2-hydroxy-2-methyl-propyl)-2-fluoro-phenyl]ethyl]amino]spiro[pyrrolo [2,3-g]phthalazine-3,4′-tetrahydropyran]-2-one]: the IC50 was 6.92 nM.

For `Cc1nnc(N[C@H](C)c2cccc(C(F)(F)F)n2)c2cc3c(cc12)n(C)c(=O)n3C` [Compound 74, 1,3,8-trimethyl-5-[[(1R)-1-[6-(trifluoromethyl)-2-pyridyl]ethyl]amino]imidazo[4,5-g]phthalazin-2-one], the IC50 was 912 nM.

With `COC1(C)C(=O)N(C)c2cc3c(N[C@H](C)c4cccc(C(F)(F)C(C)(C)O)c4F)nnc(C)c3cc21` (stereo partly drawn) [Compound 75, 3-methoxy-1,3,5-trimethyl-8-[[(1R)-1-[3-(1,1-difluoro-2-hydroxy-2-methyl-propyl)-2-fluoro-phenyl]ethyl]amino]pyrrolo[2,3-g]phthalazin-2-one], the IC50 is 8.71 nM.

On to `Cc1c([C@@H](C)Nc2nnc(C)c3cc4c(cc23)n(C2(C)CC2)c(=O)n4C)cccc1C(F)(F)CO` [Compound 76, 1,8-dimethyl-3-(1-methylcyclopropyl)-5-[[(1R)-1-[3-(1,1-difluoro-2-hydroxy-ethyl)-2-methyl-phenyl]ethyl]amino]imidazo[4,5-g]phthalazin-2-one], for which the IC50 was 6.03 nM.

`Cc1nnc(N[C@H](C)c2cccc(C(F)(F)C(C)(C)O)c2)c2cc3c(cc12)C(C)(C)C(=O)N3C` [Compound 77, 1,3,3,5-tetramethyl-8-[[(1R)-1-[3-(1,1-difluoro-2-hydroxy-2-methyl-propyl)phenyl]ethyl]amino]pyrrolo [2,3-g]phthalazin-2-one]: the IC50 is 11.2 nM.

Take `Cc1nnc(N[C@H](C)c2cccc(C(F)(F)CO)c2)c2cc3c(cc12)C(C)(C)C(=O)N3C` [Compound 78, 1,3,3,5-tetramethyl-8-[[(1R)-1-[3-(1,1-difluoro-2-hydroxy-ethyl)phenyl]ethyl]amino]pyrrolo [2,3-g]phthalazin-2-one]: the IC50 is 9.55 nM.

Consider `Cc1c([C@@H](C)Nc2nnc(C)c3cc4c(cc23)N(C(C)C)C(=O)C4(C)C)cccc1C(F)(F)CO` [Compound 79, 1-isopropyl-3,3,5-trimethyl-8-[[(1R)-1-[3-(1,1-difluoro-2-hydroxy-ethyl)-2-methyl-phenyl]ethyl]amino]pyrrolo[2,3-g]phthalazin-2-one], for which the IC50 is 6.76 nM.

With `Cc1nnc(N[C@H](C)c2cccc(C(F)(F)CO)c2)c2cc3c(cc12)n(C)c(=O)n3C(C)(C)C` [Compound 80, 3-tert-butyl-1,8-dimethyl-5-[[(1R)-1-[3-(1,1-difluoro-2-hydroxy-ethyl)phenyl]ethyl]amino]imidazo [4,5-g]phthalazin-2-one], the IC50 is 6.17 nM.

On to `Cc1nnc(N[C@H](C)c2cccc(C(F)(F)C(C)(C)O)c2)c2cc3c(cc12)C(C)(C)C(=O)N3C(C)C` [Compound 81, 1-isopropyl-3,3,5-trimethyl-8-[[(1R)-1-[3-(1,1-difluoro-2-hydroxy-2-methyl-propyl)phenyl]ethyl]amino]pyrrol o[2,3-g]phthalazin-2-one], for which the IC50 is 8.51 nM.

Take `Cc1nnc(N[C@H](C)c2cccc(C(F)(F)CO)c2)c2cc3c(cc12)C(C)(C)C(=O)N3C(C)C` [Compound 82, 1-isopropyl-3,3,5-trimethyl-8-[[(1R)-1-[3-(1,1-difluoro-2-hydroxy-ethyl)phenyl]ethyl]amino]pyrrolo [2,3-g]phthalazin-2-one]: the IC50 is 9.33 nM.

As for `Cc1nnc(N[C@H](C)c2cccc(C(F)(F)C(C)(C)O)c2)c2cc3c(cc12)n(C)c(=O)n3C1(C)CC1` [Compound 83, 1,8-dimethyl-3-(1-methylcyclopropyl)-5-[[(1R)-1-[3-(1,1-difluoro-2-hydroxy-2-methyl-propyl)phenyl]ethyl]amino]imidazo [4,5-g]phthalazin-2-one], the IC50 was 7.94 nM.

Consider `Cc1nnc(N[C@H](C)c2cccc(C(F)(F)C(C)(C)O)c2)c2cc3c(cc12)C1(CCOCC1)C(=O)N3C` [Compound 84, 1,5-dimethyl-8-[[(1R)-1-[3-(1,1-difluoro-2-hydroxy-2-methyl-propyl)phenyl]ethyl]amino]spiro [pyrrolo[2,3-g]phthalazine-3,4′-tetrahydropyran]-2-one], for which the IC50 was 8.91 nM.

As for `Cc1c([C@@H](C)Nc2nnc(C)c3cc4c(cc23)n(C(C)C)c(=O)n4C)cccc1C(F)(F)CO` [Compound 85, 3-isopropyl-1,8-dimethyl-5-[[(1R)-1-[3-(1,1-difluoro-2-hydroxy-ethyl)-2-methyl-phenyl]ethyl]amino]imidazo[4,5-g]phthalazin-2-one], the IC50 was 8.32 nM.

As for `COCC1(C)C(=O)N(C)c2cc3c(N[C@H](C)c4cccc(C(F)(F)C(C)(C)O)c4F)nnc(C)c3cc21` (stereo partly drawn) [Compound 86, D8-[[(1R)-1-[3-(1,1-difluoro-2-hydroxy-2-methyl-propyl)-2-fluoro-phenyl]ethyl]amino]-3-(methoxymethyl)-1,3,5-trimethyl-pyrrolo[3,2-g]phthalazin-2-one], the IC50 was 10.2 nM.

On to `Cc1nnc(N[C@H](C)c2cccc(C(F)(F)C(C)(C)O)c2)c2cc3c(cc12)n(C)c(=O)n3C(C)C` [Compound 87, 3-isopropyl-1,8-dimethyl-5-[[(1R)-1-[3-(1,1-difluoro-2-hydroxy-2-methyl-propyl)phenyl]ethyl]amino]imidazo [4,5-g]phthalazin-2-one], for which the IC50 was 8.51 nM.

For the compound `Cc1nnc(N[C@H](C)c2cccc(C(F)(F)CO)c2)c2cc3c(cc12)C1(CCOCC1)C(=O)N3C` [Compound 88, 1,5-dimethyl-8-[[(1R)-1-[3-(1,1-difluoro-2-hydroxy-ethyl)phenyl]ethyl]amino]spiro [pyrrolo[2,3-g]phthalazine-3,4′-tetrahydropyran]-2-one], the IC50 was 7.76 nM.

Regarding `Cc1nnc(N[C@H](C)c2cccc(C(F)(F)CO)c2F)c2cc3c(cc12)C1(CCOCC1)C(=O)N3C` [Compound 89, 1,5-dimethyl-8-[[(1R)-1-[3-(1,1-difluoro-2-hydroxy-ethyl)-2-fluoro-phenyl]ethyl]amino]spiro[pyrrolo [2,3-g]phthalazine-3,4′-tetrahydropyran]-2-one], the IC50 was 8.13 nM.

Turning to `COC1(C)C(=O)N(C)c2cc3c(N[C@H](C)c4cccc(C(F)(F)C(C)(C)O)c4)nnc(C)c3cc21` (stereo partly drawn) [Compound 90, 3-methoxy-1,3,5-trimethyl-8-[[(1R)-1-[3-(1,1-difluoro-2-hydroxy-2-methyl-propyl)phenyl]ethyl]amino]pyrrolo [2,3-g]phthalazin-2-one], the IC50 was 10.7 nM.

Consider `COC1(C)C(=O)N(C)c2cc3c(N[C@H](C)c4cccc(C(F)(F)CO)c4C)nnc(C)c3cc21` (stereo partly drawn) [Compound 92], for which the IC50 is 9.77 nM.

Take `COC1(C)C(=O)N(C)c2cc3c(N[C@H](C)c4cccc(C(F)(F)CO)c4F)nnc(C)c3cc21` (stereo partly drawn) [Compound 93, 3-methoxy-1,3,5-trimethyl-8-[[(1R)-1-[3-(1,1-difluoro-2-hydroxy-ethyl)-2-fluoro-phenyl]ethyl]amino]pyrrolo[2,3-g]phthalazin-2-one]: the IC50 was 7.41 nM.

Consider `COCC1(C)C(=O)N(C)c2cc3c(N[C@H](C)c4cccc(C(F)(F)CO)c4F)nnc(C)c3cc21` (stereo partly drawn) [Compound 94, 8-[[(1R)-1-[3-(1,1-difluoro-2-hydroxy-ethyl)-2-fluoro-phenyl]ethyl]amino]-3-(methoxymethyl)-1,3,5-trimethyl-pyrrolo[3,2-g]phthalazin-2-one], for which the IC50 was 8.91 nM.

Turning to `Cc1nnc(N[C@H](C)c2cccc(C(F)(F)CO)c2)c2cc3c(cc12)N(C)C(=O)C3(C)C` [Compound 95, 1,3,3,8-tetramethyl-5-[[(1R)-1-[3-(1,1-difluoro-2-hydroxy-ethyl)phenyl]ethyl]amino]pyrrolo [3,2-g]phthalazin-2-one], the IC50 is 7.41 nM.

As for `Cc1nnc(N[C@H](C)c2cccc(C(F)(F)C(C)(C)O)c2)c2cc3c(cc12)N(C)C(=O)C3(C)C` [Compound 96, 1,3,3,8-tetramethyl-5-[[(1R)-1-[3-(1,1-difluoro-2-hydroxy-2-methyl-propyl)phenyl]ethyl]amino]pyrrolo [3,2-g]phthalazin-2-one], the IC50 was 13.5 nM.

These data come from US20250197407A1 (Jazz Pharmaceuticals Ireland Limited, priority 2022, published 2025).
